Structures can show the parent of a compound that is named as a salt. Where two headings read alike, the source gives them in different places.
How the values were obtained:
[1] = tested on: NCI-H292 lung cancer cells; assay: FDA drug screening, complete media vs cholesterol-free media without statin (TABLE 1); assay type: cell-based, human
[2] = tested on: NCI-H292 lung cancer cells; assay: FDA drug screening, complete media vs cholesterol-free media with simvastatin (TABLE 2); assay type: cell-based, human
[3] = NCI-H292 cells, cholesterol-free media without statin, FDA drug library screen
[4] = NCI-H292 cells, complete media, FDA drug library screen
[5] = NCI-H292 cells, drug in cholesterol-free media with simvastatin 0.04 μM
[6] = NCI-H292 cells, drug in complete media
[7] = complete media vs cholesterol-free media + simvastatin (0.04 μM), >0 enhanced anti-cancer activity, about 0 neutral, <0 antagonist
[8] = Complete minus Cholesterol-free, >0 enhanced anti-cancer activity, about 0 neutral, <0 antagonist
[9] = NCI-H292 cells, cholesterol-free media without statin
[10] = NCI-H292 cells, cholesterol-free media with simvastatin 0.04 μM, cell growth value in FDA drug screen
[11] = NCI-H292 cells, complete media, cell growth value in FDA drug screen
[12] = complete media minus cholesterol-free media + simvastatin, >0 enhanced anti-cancer activity, about 0 neutral, <0 antagonist
[13] = Complete minus Cholesterol-free, greater than 0 enhanced anti-cancer activity, about 0 neutral, below 0 antagonists
[14] = NCI-H292 cells in cholesterol-free media without statin
[15] = NCI-H292 cells in complete media
[16] = Complete minus Cholesterol-free, […]
[17] = NCI-H292 cells, FDA drug library screen, cholesterol-free media without statin
[18] = NCI-H292 cells, FDA drug library screen, complete media
[19] = NCI-H292 cells, FDA drug library screen, cholesterol-free media with simvastatin 0.04 μM
[20] = complete vs cholesterol-free media, greater than 0 enhanced anti-cancer activity, about 0 neutral, below 0 antagonists
[21] = complete media vs cholesterol-free media + simvastatin (0.04 μM), […]

N=C(N)N [Guanidine (hydrochloride)]
Cholesterol-free [1, 3]: 0.9919
Complete [1, 4]: 1.237
Difference ([1]; complete vs cholesterol-free media, >0 enhanced anti-cancer activity, about 0 neutral, <0 antagonist): 0.24
Cholesterol-free media + simvastatin (0.04 μM) [2, 5]: 1.136
Complete Media [2, 6]: 0.9286
Difference [2, 7]: −0.21

CCOC(=O)[C@H](C)C[C@@H](Cc1ccc(-c2ccccc2)cc1)NC(=O)CCC(=O)O [Sacubitril]
Difference [1, 8]: −0.30
Cholesterol-free [1, 9]: 1.009
Complete ([1]; NCI-H292 cells, complete media): 0.7049
Cholesterol-free media + simvastatin (0.04 μM) [2, 10]: 1.492
Complete Media [2, 11]: 1.622
Difference [2, 12]: 0.13

NC(=O)c1cnc2[nH]ccc2c1N[C@@H]1[C@@H]2CC3C[C@H]1C[C@@](O)(C3)C2 [Peficitinib]
Difference [1, 8]: −0.03
Cholesterol-free [1, 3]: 1.336
Complete [1, 4]: 1.303
Cholesterol-free media + simvastatin (0.04 μM) [2, 10]: 0.6674
Complete Media [2, 11]: 0.776
Difference [2, 12]: 0.11

O=C(O[C@H]1C[N+]2(CCCOc3ccccc3)CCC1CC2)C(O)(c1cccs1)c1cccs1.[Br-] [Aclidinium (Bromide)]
Cholesterol-free [1]: 1.253
Complete [1]: 0.9873
Difference [1]: −0.27
Cholesterol-free media + simvastatin (0.04 μM) [2]: 0.8781
Complete Media [2]: 0.7357
Difference [2]: −0.14

COc1ccccc1N1CCN(CC(O)COc2cccc3ccccc23)CC1 (centres unmarked) [Naftopidil]
Difference [1, 13]: −0.98
Cholesterol-free [1, 14]: 1.94
Complete [1, 15]: 0.9592
Cholesterol-free media + simvastatin (0.04 μM) [2, 10]: 0.6892
Complete Media [2, 11]: 0.763
Difference [2, 12]: 0.07

CS(=O)(=O)OC[C@H](O)[C@@H](O)COS(C)(=O)=O [Treosulfan]
Difference [1, 13]: −0.50
Cholesterol-free [1, 14]: 1.319
Complete [1, 15]: 0.8211
Cholesterol-free media + simvastatin (0.04 μM) [2, 5]: 1.216
Complete Media [2, 6]: 1.032
Difference [2, 7]: −0.18

NCC[C@H](O)C(=O)N[C@@H]1C[C@H](N)[C@@H](O[C@H]2O[C@H](CN)[C@@H](O)[C@H](O)[C@H]2O)[C@H](O)[C@H]1O[C@H]1O[C@H](CO)[C@@H](O)[C@H](N)[C@H]1O [Amikacin (disulfate)]
Difference [1, 16]: −0.09
Cholesterol-free [1, 17]: 0.9569
Complete [1, 18]: 0.8685
Cholesterol-free media + simvastatin (0.04 μM) [2, 19]: 0.8392
Complete Media [2, 18]: 1.245
Difference ([2]; complete media minus cholesterol-free media + simvastatin, […]): 0.41

NCCC[C@H](N)C(=O)O [L-Ornithine]
Cholesterol-free [1, 9]: 1.429
Complete ([1]; NCI-H292 cells, complete media): 1.042
Difference [1, 20]: −0.39
Cholesterol-free media + simvastatin (0.04 μM) [2, 19]: 0.9484
Complete Media [2, 18]: 1.47
Difference [2, 12]: 0.52

O.Sc1ncnc2nc[nH]c12 [6-Mercaptopurine hydrate]
Difference [1, 16]: −0.11
Cholesterol-free [1, 17]: 0.3886
Complete [1, 18]: 0.2796
Cholesterol-free media + simvastatin (0.04 μM) [2, 5]: 0.9123
Complete Media [2, 6]: 0.7458
Difference [2, 21]: −0.17

Cc1c(O)c(=O)ccn1C [Deferiprone]
Cholesterol-free [1, 9]: 1.443
Complete ([1]; NCI-H292 cells, complete media): 1.044
Difference [1, 20]: −0.40
Cholesterol-free media + simvastatin (0.04 μM) ([2]; NCI-H292 cells, cholesterol-free media with simvastatin 0.04 μM, FDA drug library screen (TABLE 2)): 1.047
Complete Media ([2]; NCI-H292 cells, complete media, FDA drug library screen (TABLE 2)): 1.061
Difference ([2]; complete media minus cholesterol-free media + simvastatin (0.04 μM), >0 enhanced anti-cancer activity, about 0 neutral, <0 antagonist): 0.01

Polymyxin B (Sulfate)
Difference [1, 16]: −0.03
Cholesterol-free [1, 3]: 0.9793
Complete [1, 4]: 0.9463
Cholesterol-free media + simvastatin (0.04 μM) [2, 5]: 1.169
Complete Media [2, 6]: 0.9427
Difference [2, 21]: −0.23

CC1CCC(C(C)C)C(O)C1 (racemic) [DL-Menthol]
Cholesterol-free [1, 9]: 1.299
Complete ([1]; NCI-H292 cells, complete media): 0.8907
Difference [1, 20]: −0.41
Cholesterol-free media + simvastatin (0.04 μM) [2, 19]: 0.8922
Complete Media [2, 18]: 1.05
Difference [2, 12]: 0.16

CCOc1nc2cccc(C(=O)O)c2n1Cc1ccc(-c2ccccc2-c2nc(=O)o[nH]2)cc1 [Azilsartan]
Cholesterol-free [1, 9]: 1.417
Complete ([1]; NCI-H292 cells, complete media): 1.021
Difference [1, 20]: −0.40
Cholesterol-free media + simvastatin (0.04 μM) [2, 19]: 1.196
Complete Media [2, 18]: 1.042
Difference [2, 7]: −0.15

Cc1ncc([N+](=O)[O-])n1CCOC(=O)c1ccccc1 [Metronidazole Benzoate]
Difference [1, 8]: −0.30
Cholesterol-free [1, 9]: 1.298
Complete ([1]; NCI-H292 cells, complete media): 1.001
Cholesterol-free media + simvastatin (0.04 μM) [2, 19]: 1.104
Complete Media [2, 18]: 1
Difference [2, 7]: −0.10

O=C(CNC(=O)c1ccc(C2=NOC(c3cc(Cl)cc(C(F)(F)F)c3)(C(F)(F)F)C2)c2ccccc12)NCC(F)(F)F (centres unmarked) [Afoxolaner]
Cholesterol-free [1, 3]: 1.008
Complete [1, 4]: 1.19
Difference ([1]; complete vs cholesterol-free media, […]): 0.18
Cholesterol-free media + simvastatin (0.04 μM) [2, 19]: 2.42
Difference ([2]; complete media minus cholesterol-free media + simvastatin (0.04 μM), […]): −1.05

Source: patent publication US20250144067A1, “PERSONALIZED STARVATION THERAPY FOR CANCER” (Faeth Therapeutics, Inc., priority 2021, published 2025)
